The subject of assay [1] is MDR (Multidrug Resistance Proteins) in HDFa cells. As to the kind of experiment: MDR activity test (calcein retention, Vybrant MDR Resistance Assay Kit). The conditions noted are these: 24 hours, control = 100%.
From the text: In normal cells, non-fluorescent calcein enters the cell and accumulates therein. It is hydrolysed therein by endogenous esterases, and becomes fluorescent. In cells in which MDR expression is increased, the presence of these protein transporters makes it possible to expel the calcein out of the cell before it is cleaved: there is no fluorescence.
To do this, the Molecular Probes Vybrant MDR Resistance Assay Kit (V13180 Invitrogen Life Science) is used.
These cells are then in passage 4. The cells are left to stand for 48 h for adhesion in an incubator at 37° C. and 5% CO2. […] This stock solution at 10 mg/ml is then diluted in PBS until the working concentration is obtained; • 5 wells with FGF (Sigma) at 5 nM final concentration in the well (positive control) or KGF (Sigma) at 25 ng/ml.
The cells comprising active agents are incubated at 37° C., 5% CO2 for 24 hours.
On D3, a labelling solution is prepared by diluting the calcein solution of the kit at 1 mM (component A of the Invitrogen Life Science kit V13180) in PBS, so as to achieve a concentration of 1 μM (1000× dilution); 50 μl of calcein diluted to 1 μM are provided per well, i.e. 5 ml per 96-well plate. […]
The calcein retention is measured on a Perkin Elmer Enspire® Multimode Reader fluorescence spectrophotometer, by reading the fluorescein fluorescence (λexcitation: 494 nm, λemission: 512 nm). […]
The subject of assay [2] is primary human fibroblast cells (HDFa). As to the kind of experiment: Evaluation of cytotoxicity, MTT colorimetric test (cell vitality). The conditions noted are these: relative to untreated cells = 100%. The class given is cell-based. An excerpt: This test serves to define the maximum tolerable dose that can be used on the cells without a toxic effect, by means of a rapid and sensitive quantification of the cell proliferation and of the cell viability as a function of the compositions according to the invention.
Briefly, the colorimetric test is based on the activity of a mitochondrial enzyme, succinate dehydrogenase, which degrades the yellow substrate MTT (3-[4,5-dimethylthiazol-2-yl]-2,5-diphenyltetrazolium bromide) into formazan crystals (violet). The amount of formazan salt produced by the cells from the MTT indicates the cell vitality and is measured by spectrophotometry at 570 nm.
In passage 3, the cells were seeded into 96-well plates in a proportion of 2000 cells in a volume of 200 μl of culture medium (Tebu-Bio—Fibroblast Growth Medium—500 ml—Ref 95116500).
On day 7 after seeding of the cells (the medium having been replaced with fresh medium every two days), the culture medium (Tebu-Bio—Fibroblast Growth Medium—500 ml—Ref. 95116500) is removed and 200 μl of the active agent to be tested, diluted in culture medium (no less than 50% of medium), are added and then the cells are reincubated (37° C., 5% CO2).
On the day of the test, 2 ml of fresh MTT solution are prepared by diluting the MTT powder (Thiazolyl Blue Tetrazolium Bromide, Sigma ref. M 5655) to 5 mg/ml in PBS.
20 μl of MTT solution are added to each well. After homogenization, the plate is reincubated (37° C., 5% CO2) for 3 to 4 hours so as to allow metabolization of the MTT.
During this time, the MTT solubilization solution is prepared (DMSO/Isopropanol—1:1). The culture medium is removed by suctioning, and then the plate is dried with absorbent paper. The formazan crystals which have formed are then resuspended with 150 μl of MTT solubilization solution, by agitation at 150 rpm for 15 minutes at ambient temperature.
The optical density is then read at 570 nm on a Perkin Elmer Enspire® Multimode Reader spectrophotometer, with the OD at 670 nm (background noise) being removed.
The result is expressed as a function of the % absorption relative to the % absorption noted for the control cells (not treated with a compound).
In general terms: Tetrazolium assays rely on reduction of a dye to a coloured formazan, in cell work by metabolically active cells.

[ ]: non-standard residue; d: D form. Cit = NC(=O)NCCC[C@H](N)C(=O)O

Regarding `COc1ccc(CCN(C)CCCC(C#N)(c2ccc(OC)c(OC)c2)C(C)C)cc1OC` (centres unmarked) [Verapamil, verapamil, reference compound], the “% calcein retention” value in assay [1] (30 μg/ml, greater than 100 = inhibits MDR activity) is on record as 139.1%.

For H-KDV[Cit]-NH2 [Peptide], the “% vitality” value in assay [2] (peptide concentration 0.000001%) is reported as 94.6%; in assay [2] (peptide concentration 0.00001%), 71.0%; in assay [2] (peptide concentration 0.00002%) it was 66.9%; in assay [2] (peptide concentration 0.00004%), 72.0%; in assay [2] (peptide concentration 0.00006%), 44.7%; in assay [2] (peptide concentration 0.00008%) it was 57.3%. Moreover, the “% vitality” value in assay [2] (peptide concentration 0.0001%) is listed as 39.8%; in assay [2] (peptide concentration 0.0002%), 47.6%; in assay [2] (peptide concentration 0.005%), 49.7%.

B1: KGF: KGF (Sigma), growth factor, positive control (protein, UniProt P21781 32-194, looked up)
Fibroblast growth factor 7: CNDMTPEQMATNVNCSSPERHTRSYDYMEGGDIRVRRLFCRTQWYLRIDKRGKVKGTQEMKNNYNIMEIRTVAVGIVAIKGVESEFYLAMNKEGKLYAKKECNEDCNFKELILENHYNTYASAKWTHNGGEMFVALNQKGIPVRGKKTKKEQKTAHFLPMAIT
Turning to B1, in assay [1] (25 ng/ml, less than 100 = stimulates MDR activity), the “% calcein retention” value is reported as 92.3%.

The values above are taken from patent US20140377390A1, “Cosmetic Compositions Comprising Plant Extracts for Combating Skin Aging” (CASTER, priority 2013, published 2014).
